In patent publication US10934346B2, “Modified T cell comprising a polynucleotide encoding an inducible stimulating molecule comprising MyD88, CD40 and FKBP12” (priority 2014, dated 2021):

Columns and labels:
[1] = system: cells; assay: Amount of AP1903 needed in vitro for effective signaling of cells; format: cell-based
Experimental: The fixed dose of AP1903 for injection used, for example, may be 0.4 mg/kg intravenously infused over 2 hours. The amount of AP1903 needed in vitro for effective signaling of cells is about 10-100 nM (MW: 1412 Da). This equates to 14-140 μg/L or ˜0.014-0.14 mg/kg ([…]). The dosage may vary according to the application, and may, in certain examples, be more in the range of 0.1-10 nM, or in the range of 50-150 nM, 10-200 nM, 75-125 nM, 100-500 nM, 100-600 nM, 100-700 nM, 100-800 nM, or 100-900 nM. Doses up to 1 mg/kg were well-tolerated in the Phase I study of AP1903 described above.

[2] = system: iMC-expressing T cells; assay: Survival and growth of iMC-transduced T cells with weekly rimiducid, with or without IL-2; format: cell-based, human
Experimental: FIGS. 8A-8C provide assay results of iMC signaling in primary T cells induces cell survival in the absence of IL-2. FIG. 8A and FIG. 8B) FKBP and iMC transduced T cells were cultured in media supplemented with or without 100 U/ml IL-2 and stimulated on a weekly basis with 10 nM rimiducid (CID) and measured for growth by cell counting. FIG. 8C) iMC-modified T cells cultured in media without IL-2, with and without CID stimulation, were measured for viability by flow cytometry (SSC, FSC) after 42 days in culture. * indicates p-value <0.05.
The phosphorylation of key downstream signaling molecules, including JNK, Akt, RelA, ERK and p38 MAPK was measured in the induced iMC T cells.

[3] = system: IC-21 macrophages; assay: IL-6 ELISA of adenovirus-transduced IC-21 macrophages with AP1903; format: cell-based
From the text: Inducible chimeric polypeptides of the present application were expressed in various cell types along with a tumor antigen. […] Cell lines included keratinocytes, melanocytes (for example, B16-F10 melanoma), macrophages (for example, IC-21), and fibroblasts (for example, BLK-CL4). FIG. 22 provides a schematic overview of the process by which expression of the chimeric polypeptide, after contacting AP1903, can induce the expression of inflammatory cytokines and chemokines in the transduced cell. FIG. 23 provides a schematic of an assay used to measure PSMA expression and cytokine secretion in transduced cells. The cells were transduced with one of four adenovirus Ad5 vectors: Ad5-iMC-RP-FL; Ad5-iMC-P2A-P-FL; Ad5f35iMC-RP-FL; or Ad5f35iMC-P2A-FL. […] IC-21 macrophages were cultured at 100,000 cells/ml/well in 24-well plates. […] A. Cells were labeled with anti-human PSMA antibody, LNI-17, (Biolegend, San Diego, Calif.) and PSMA expression was analyzed by flow cytometry. […] B. IL-6 was evaluated from the culture supernatants by ELISA (e-Bioscience, San Diego, Calif.). […] A. Cells were labeled with anti-human PSMA antibody, LNI-17, (Biolegend, San Diego, Calif.) and PSMA expression was analyzed by flow cytometry. […] B. IL-6 was evaluated from the culture supernatants by ELISA (e-Bioscience, San Diego, Calif.). […] IL-6 was evaluated from the culture supernatants by ELISA (e-Bioscience, San Diego, Calif.).

For `CC[C@H](C(=O)N1CCCC[C@H]1C(=O)O[C@H](CCc1ccc(OC)c(OC)c1)c1cccc(OCC(=O)NCCNC(=O)COc2cccc([C@@H](CCc3ccc(OC)c(OC)c3)OC(=O)[C@@H]3CCCCN3C(=O)[C@@H](CC)c3cc(OC)c(OC)c(OC)c3)c2)c1)c1cc(OC)c(OC)c(OC)c1` (relative stereo) [rimiducid, 2-Piperidinecarboxylic acid, 1-[(2S)-1-oxo-2-(3,4,5-trimethoxyphenyl)butyl]-, 1,2-ethanediylbis [imino(2-oxo-2,1-ethanediyl)oxy-3,1-phenylene[(1R)-3-(3,4-Dimethoxyphenyl)propylidene]] ester, [2S-[1(R*),2R*[S*[S*[1(R*),2R*]]]]]-(9Cl)], the “amount needed in vitro for effective signaling of cells” value [1] was 10 to 100 nM, the “amount needed for effective signaling, converted” value ([1]; MW: 1412 Da) was 14 to 140 µg/L and the T cell proliferation ([2]; IL-2 withdrawn) was “no proliferation was observed”. For the same compound, the “T cell survival and expansion” value ([2]; in the presence of exogenous IL-2) was “increased T cell survival and cell expansion”, the IL-6 production ([3]; 100 nM AP1903) was “response to AP1903 by producing IL-6” and the “activation of IL-6, dependence on AP1903” value ([3]; macrophages) was “occurred in the presence or absence of AP1903”.
